Test results from patent US10273290B2, “Hydrocarbon double-stapled stabilized HIV-1 GP41 heptad repeat domain peptides” (DANA-FARBER CANCER INSTITUTE, INC., priority 2009, dated 2019).
Bridge positions count the residues as written; N and C are the ends. Square brackets hold non-standard residues; d marks the D form. Peptide text beside a SMILES is read from it. S5 = C=CCCC[C@](C)(N)C(=O)O; Nle = CCCC[C@H](N)C(=O)O

Assays:
[1] = Circular dichroism, α-helical content; type: physicochemical; conditions: pH 2 versus pH 7
Outline: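 Far-UV CD spectra recorded at 20° C, 190-260 nm, 0.1 cm path, 10 accumulations. Percent α-helicity from mean residue ellipticity at 222 nm: 100×[θ]222/max[θ]222, with max[θ]222=−40,000×[1−(2.5/number of residues)]. Secondary-structure fractions also estimated by CDNN curve-fitting.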

chymotrypsin = target: T1, chymotrypsin (Bos taurus, UniProt P00766); assay: Protease resistance assay, chymotrypsin (LC/MS); type: in vitro ADME; conditions: pH 7.4, 0.5 chymotrypsin, peptide 25 μM
T1 construct: purchased Sigma
Method: The DAD signal was set to 280 nm with an 8 nm bandwidth and MSD set to scan mode with one channel at (M+2H)/2, +1 mass units and the other at (M+3H)/3, +1 mass units. Integration of each MSD signal yielded areas under the curve of >10^8 counts. Reaction samples were composed of 5 μL peptide in DMSO (1 mM stock) and 195 μL of buffer consisting of 50 mM phosphate buffer pH 7.4 containing 2 mM CaCl2. Upon injection of the 0 hr time point sample, 2 μL of 50 ng/μL chymotrypsin (Sigma) was added and the amount of intact peptide quantitated by serial injection over time. An internal control of acetylated tryptophan carboxamide at a concentration of 100 μM was used to normalize each MSD data point. A plot of MSD area versus time yielded an exponential decay curve and half-lives were determined by nonlinear regression analysis using Prism software (GraphPad).

pepsin = assay: Protease resistance assay, pepsin at pH 2
Outline: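 Peptide from a 1 mM DMSO stock was incubated with pepsin in its appropriate buffer. Intact peptide was quantified over time by serial LC-MS injections, normalized to a 100 μM acetylated tryptophan carboxamide internal standard. Half-life came from nonlinear regression of the exponential decay.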

CCCC[C@H](NC(C)=O)C(=O)N[C@H](C(=O)N[C@@H](Cc1c[nH]c2ccccc12)C(=O)N[C@@]1(C)CCCC=CCCC[C@@](C)(C(=O)N[C@@H](CCC(=O)O)C(=O)N[C@H](C(=O)N[C@@H](CC(N)=O)C(=O)N[C@@H](CC(N)=O)C(=O)N[C@@H](Cc2ccc(O)cc2)C(=O)N[C@H](C(=O)N[C@@H](CO)C(=O)N[C@@H](CC(C)C)C(=O)N[C@H](C(=O)N[C@@H](Cc2c[nH]cn2)C(=O)N[C@@H](CO)C(=O)N[C@@H](CC(C)C)C(=O)N[C@H](C(=O)N[C@@H](CCC(=O)O)C(=O)N[C@@H](CCC(=O)O)C(=O)N[C@@H](CO)C(=O)N[C@@H](CCC(N)=O)C(=O)N[C@@H](CC(N)=O)C(=O)N[C@@H](CCC(N)=O)C(=O)N[C@@]2(C)CCCC=CCCC[C@@](C)(C(=O)N[C@@H](CCC(N)=O)C(=O)N[C@@H](CCC(=O)O)C(=O)N[C@@H](CC(C)C)C(=O)N[C@@H](CC(C)C)C(=O)N[C@@H](CCC(=O)O)C(N)=O)NC(=O)[C@H](CC(N)=O)NC(=O)[C@H](CCCCN)NC(=O)[C@H](CCC(=O)O)NC2=O)[C@@H](C)CC)[C@@H](C)CC)[C@@H](C)O)[C@@H](C)CC)NC(=O)[C@H](CC(=O)O)NC(=O)[C@H](Cc2c[nH]c3ccccc23)NC(=O)[C@H](CCC(=O)O)NC1=O)[C@@H](C)O [SAH-gp41(626-662)(A, F)] (Ac-[Nle]TW[S5]EWD[S5]EINNYTSLIHSLIEESQNQ[S5]EKN[S5]QELLE-NH2; staple 4-8, 28-32; N-terminus and C-terminus assumed)
α-helicity, in words [1]: even greater α-helicity at pH 2 than at pH 7 | Half-Life (chymotrypsin): 5.02 h | half-life at 25 μM (pepsin; pepsin (isolated protease) in buffer, pH 2): 34 h | acid protease resistance, in words (pepsin; pepsin at pH 2): striking acid protease resistance
